Assay results reported in patent US9017735B2, “Modulation of KCNQ potassium channel activity for treatment of psychiatric disorders and the symptoms thereof” (Marquette University, priority 2009, dated 2015).
“Also recorded” adds a separate entry of the source.

Experiments:
KCNQ channel = settings: comparative statement among the DuPont channel blockers; cited from earlier work
[1] = test system: KCNQ potassium channels in prefrontal cortex; test: Forced delayed alternation task in a T-maze (working memory), acute PCP model, brain microinfusion; format: in vivo, rats; settings: for effect on deficits in forced delayed alternation task performance in a T-maze produced by phencyclidine (summary statement): phencyclidine administration in laboratory rodents, no dose stated
Procedure: This experimental paradigm involves the working memory, a prefrontal cortex dependent task, and is used to examine attention and memory function. This study was conducted to determine the role of KCNQ channels in PFC in regulation of memory.
Microinjection and Behavioral Experiments. Stainless Steel cannulae were implanted bilaterally 1 mm above nucleus accumbens or implanted in prefrontal cortex. Rats were permitted a minimum of 7 days recovery from surgery. Drugs were injected using an injection needle that extended 1 mm beyond the tip of the guide cannulae. […] In experiments where two drugs were delivered into accumbens, the microinjections were separated by 15 minutes. Behavioral activity then was monitored as discussed in the Results.
(§1) Drugs. All drugs were purchased from commercial sources and dissolved in saline. […] All drug doses were nmol per side and were injected bilaterally into the specified brain region.

[2] = test system: KCNQ (Kv7) potassium channels; test: Prepulse inhibition (PPI) of the startle response, acute PCP model of schizophrenia; format: in vivo, rats; settings: for effect on deficits in prepulse inhibition produced by phencyclidine (summary statement): phencyclidine administration in laboratory rodents, no dose stated
From the text: The startle response is produced by delivery of a sudden and intense sensory stimulus pulse (120 db sound) and can be inhibited by exposure to a weaker prepulse (62, 66, or 75 db) which is slightly above the background noise level (60 db). […] PPI has been used as a measure of sensory information processing in rodents and humans. […] A cocktail mixture of XE991 and PCP dissolved in saline was used in these studies. N=38 rats per treatment. *p<0.05 vs. Sal/Sal; +p<0.05 vs. Sal/PCP.
as §1

[3] = test system: KCNQ (Kv7) potassium channels; test: Social interaction behavior, acute PCP model of schizophrenia; format: in vivo, rats; settings: for effect of channel blocker alone on level of social interaction: 15 minutes before social interaction arena; for reversal of PCP-induced social interaction deficit: p<0.05 vs. Sal/PCP
[4] = test system: KCNQ (Kv7) potassium channels; test: as above; format: in vivo, rats; settings: phencyclidine administration in laboratory rodents; no dose stated
From the text: (§2) Social interaction deficit is considered to be a negative symptom of schizophrenia and can be induced in rodents by acute PCP or Ketamine administration and can be reversed by antipsychotics. […] A cocktail mixture of XE991 and PCP dissolved in saline was used in these studies. *p<0.05 vs. Sal/Sal; +p<0.05 vs. Sal/PCP; N=25-42 rats per treatment.
as §2, with “DMP543” for “XE991”, “40% DMSO” for “saline”, “N=10-28” for “N=25-42”, “treatment. […]” for “treatment.”

[5] = comparative statement among the DuPont channel blockers; cited from earlier work

## O=C1c2ccccc2C(Cc2ccnc(F)c2)(Cc2ccnc(F)c2)c2ccccc21 [DMP543, 10,10-bis(2-fluoro-4-pyridinylmethyl)-9(10H)-anthracenone]
KCNQ channel
  potency at KCNQ channel: higher potency
[1]
  effect on deficits in forced delayed alternation task performance in a T-maze produced by phencyclidine (summary statement): attenuate or fully reverse
[2]
  effect on deficits in prepulse inhibition produced by phencyclidine (summary statement): attenuate or fully reverse
[3]; DMP543 0.15 mg/kg s.c. alone
  effect of channel blocker alone on level of social interaction: did not significantly modulate
[3]; DMP543 0.15 mg/kg s.c. co-administered with PCP 1.5 mg/kg s.c. (cocktail in 40% DMSO)
  reversal of PCP-induced social interaction deficit: significantly reversed the deficit
[3]; DMP543 0.15 mg/kg s.c. co-administered with PCP 1.5 mg/kg s.c. (cocktail in 40% DMSO), listed as DM543
  reversal of PCP-induced social interaction deficit: reversed
[4]
  effect on deficits in social interaction produced by phencyclidine (summary statement): attenuate or fully reverse
[5]
  serum half-life: higher serum half-life

## O=C1N(c2ccccc2)c2ccccc2C1(Cc1ccncc1)Cc1ccncc1 [Linopirdine, 3,3-bis(4-pyridinylmethyl)-1-phenylindolin-2-one]
[2]
  effect on deficits in prepulse inhibition produced by phencyclidine (summary statement): attenuate or fully reverse
[4]
  effect on deficits in social interaction produced by phencyclidine (summary statement): attenuate or fully reverse

## c1ccc(C2(N3CCCCC3)CCCCC2)cc1 [PCP, phencyclidine]
[1]; PCP 3.0 mg/kg s.c. one hour before behavioral testing, trained rats, p<0.05 vs. Sal/Sal
  effect of PCP alone on working memory: robust and reproducible disruption of working memory
[2]; PCP 1.5 mg/kg s.c., all three prepulses, p<0.05 vs. Sal/Sal
  effect of PCP alone on prepulse inhibition: reduced the prepulse inhibition at all three prepulses; also recorded: disrupts the prepulse inhibition
[3]; PCP 1.5 mg/kg s.c., 15 minutes before testing, p<0.05 vs. Sal/Sal
  effect of PCP alone on social interaction time: significant reduction in social interaction time

## O=C1c2ccccc2C(Cc2ccncc2)(Cc2ccncc2)c2ccccc21 [XE991, 10,10-bis(4-pyridinylmethyl)-9(101-1)-anthracenone]
[1]; XE991 60 nmol/1 ul/1 min, acute bilateral infusion into prefrontal cortex, alone
  effect of channel blocker alone on memory and performance in delayed alternation task: did not disrupt the memory and performance
[1]; XE991 60 nmol/1 μl/1 min microinfusion into PFC 5 minutes before PCP 3.0 mg/kg s.c., p<0.05 vs. Sal/PCP
  reversal of PCP-induced working memory deficits: reversed the PCP-induced memory deficits
[1]; XE991 microinjected in the nucleus accumbens (data not shown)
  effect on PCP-mediated working memory disruption: no effect
[1]
  effect on deficits in forced delayed alternation task performance in a T-maze produced by phencyclidine (summary statement): attenuate or fully reverse
[2]; XE991 0.5 mg/kg s.c. alone, 10 minutes before startle chamber, prepulses 62, 66, 75 db
  effect of channel blocker alone on prepulse inhibition: did not show any disruption of the prepulse inhibition
[2]; XE991 0.5 mg/kg s.c. with PCP 1.5 mg/kg s.c. (cocktail in saline), 66 db prepulse, p<0.05 vs. Sal/PCP
  reversal of PCP-induced deficits in PPI: reversed the PCP-induced deficits in PPI
[2]
  effect on deficits in prepulse inhibition produced by phencyclidine (summary statement): attenuate or fully reverse
[3]; XE991 0.5 mg/kg s.c. alone
  effect of channel blocker alone on level of social interaction: did not significantly modulate
[3]; XE991 0.5 mg/kg s.c. co-administered with PCP 1.5 mg/kg s.c. (cocktail in saline)
  reversal of PCP-induced social interaction deficit: reversed the deficit
[4]
  effect on deficits in social interaction produced by phencyclidine (summary statement): attenuate or fully reverse
